Assay results as given in patent publication US8858934B2, “Method for producing cells having characteristics of hepatocytes” (priority 2010, dated 2014).

Test system: cells of the present invention (Metaheps)
Test: Long-term toxicity in the cells of the present invention (LDH release over 15 days)
Type: cell-based, human
Conditions: Metaheps incubated 15 days with low concentrations (diclofenac 50 μM, acetaminophen 500 μM)
Method: On incubation days 1, 3, 6, 8, 10, 13 and 15 medium samples were drawn and LDH activity in media was determined using the Cytotoxicity Kit from Promega. LDH release was calculated in % as 100×(LDH in media/LDH media+LDH lysate).

| Compound | toxicity in Metaheps as measured by LDH release |
| --- | --- |
| O=C(O)Cc1ccccc1Nc1c(Cl)cccc1Cl [diclofenac] | long-term toxicity |
| CC(=O)Nc1ccc(O)cc1 [acetaminophen] | acute toxicity |
